Values of other authors as cited in US8999893B2, “Stabilized oil-in-water emulsions including meptyl dinocap” (Dow AgroSciences LLC, priority 2008, dated 2015).

## 2,6-dinitro-4-octylphenyl crotonates and 2,4-dinitro-6-octylphenyl crotonates in which ‘octyl’ is a mixture of 1-methylheptyl, 1-ethylhexyl and 1-propylpentyl groups [Meptyl Dinocap]
  solubility in water: 0.151 µg/mL
